Experimental data: the supplement of paper PMC10307832

What was measured:
Assay in all cases: relative viability (nuclei count vs DMSO), 5 days (fraction); higher = more cells survive
COR-L23 = test system: COR-L23
In short: (§1)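 Relative viability was taken as the ratio of nuclei in treated wells to nuclei in vehicle wells. Lung cancer cell lines in 1536-well plates received compounds by pin tool one day after seeding, either one drug alone or a fixed anchor-drug dose plus five library-drug doses (not always all listed) in √10 steps. Nuclei were counted on 4× images after 5 days of treatment, and values are medians of duplicate plates.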

ChaGo-K-1 = test system: ChaGo-K-1
In short: as §1

EMC-BAC-2 = test system: EMC-BAC-2
In short: as §1

EPLC-272H = test system: EPLC-272H
In short: as §1

H3255 = test system: H3255
In short: as §1

HCC-827 = test system: HCC-827
In short: as §1

LCLC-103H = test system: LCLC-103H
In short: as §1

LU99A = test system: LU99A
In short: as §1

NCI-H1395 = test system: NCI-H1395
In short: as §1

NCI-H1563 = test system: NCI-H1563
In short: as §1

NCI-H1651 = test system: NCI-H1651
In short: as §1

NCI-H1793 = test system: NCI-H1793
In short: as §1

NCI-H1944 = test system: NCI-H1944
In short: as §1

NCI-H2023 = test system: NCI-H2023
In short: as §1

NCI-H2085 = test system: NCI-H2085
In short: as §1

NCI-H2087 = test system: NCI-H2087
In short: as §1

NCI-H2405 = test system: NCI-H2405
In short: as §1

NCI-H520 = test system: NCI-H520
In short: as §1

NCI-H650 = test system: NCI-H650
In short: as §1

NCI-H838 = test system: NCI-H838
In short: as §1

SK-MES-1 = test system: SK-MES-1
In short: as §1

Structure (SMILES): Nc1ccn([C@@H]2O[C@H](CO)[C@@H](O)[C@@H]2O)c(=O)n1 [Cytarabine] + Cc1nc(Nc2ncc(C(=O)Nc3c(C)cccc3Cl)s2)cc(N2CCN(CCO)CC2)n1 [Dasatinib] (partner 0.075 µM)
- relative viability (COR-L23; first compound 0.005 µM): 0.405
- relative viability (COR-L23; first compound 0.01581 µM): 0.312
- relative viability (COR-L23; first compound 0.05 µM): 0.287
- relative viability (COR-L23; first compound 0.1581 µM): 0.17
- relative viability (COR-L23; first compound 0.5 µM): 0.14
- relative viability (ChaGo-K-1; first compound 0.005 µM): 0.518
- relative viability (ChaGo-K-1; first compound 0.01581 µM): 0.347
- relative viability (ChaGo-K-1; first compound 0.05 µM): 0.384
- relative viability (ChaGo-K-1; first compound 0.1581 µM): 0.182
- relative viability (ChaGo-K-1; first compound 0.5 µM): 0.184
- relative viability (EMC-BAC-2; first compound 0.005 µM): 0.344
- relative viability (EMC-BAC-2; first compound 0.01581 µM): 0.278
- relative viability (EMC-BAC-2; first compound 0.05 µM): 0.203
- relative viability (EMC-BAC-2; first compound 0.1581 µM): 0.154
- relative viability (EMC-BAC-2; first compound 0.5 µM): 0.113
- relative viability (EPLC-272H; first compound 0.005 µM): 0.304
- relative viability (EPLC-272H; first compound 0.01581 µM): 0.241
- relative viability (EPLC-272H; first compound 0.05 µM): 0.211
- relative viability (EPLC-272H; first compound 0.1581 µM): 0.113
- relative viability (EPLC-272H; first compound 0.5 µM): 0.0979
- relative viability (H3255; first compound 0.005 µM): 0.363
- relative viability (H3255; first compound 0.01581 µM): 0.3
- relative viability (H3255; first compound 0.05 µM): 0.273
- relative viability (H3255; first compound 0.1581 µM): 0.199
- relative viability (H3255; first compound 0.5 µM): 0.319
- relative viability (HCC-827; first compound 0.005 µM): 0.445
- relative viability (HCC-827; first compound 0.01581 µM): 0.397
- relative viability (HCC-827; first compound 0.05 µM): 0.4
- relative viability (HCC-827; first compound 0.1581 µM): 0.226
- relative viability (HCC-827; first compound 0.5 µM): 0.227
- relative viability (LCLC-103H; first compound 0.005 µM): 0.449
- relative viability (LCLC-103H; first compound 0.01581 µM): 0.507
- relative viability (LCLC-103H; first compound 0.05 µM): 0.486
- relative viability (LCLC-103H; first compound 0.1581 µM): 0.353
- relative viability (LCLC-103H; first compound 0.5 µM): 0.445
- relative viability (LU99A; first compound 0.005 µM): 0.563
- relative viability (LU99A; first compound 0.01581 µM): 0.647
- relative viability (LU99A; first compound 0.05 µM): 0.58
- relative viability (LU99A; first compound 0.1581 µM): 0.578
- relative viability (LU99A; first compound 0.5 µM): 0.364
- relative viability (NCI-H1395; first compound 0.005 µM): 0.385
- relative viability (NCI-H1395; first compound 0.01581 µM): 0.34
- relative viability (NCI-H1395; first compound 0.05 µM): 0.374
- relative viability (NCI-H1395; first compound 0.1581 µM): 0.319
- relative viability (NCI-H1395; first compound 0.5 µM): 0.282
- relative viability (NCI-H1563; first compound 0.005 µM): 0.506
- relative viability (NCI-H1563; first compound 0.01581 µM): 0.466
- relative viability (NCI-H1563; first compound 0.05 µM): 0.46
- relative viability (NCI-H1563; first compound 0.1581 µM): 0.383
- relative viability (NCI-H1563; first compound 0.5 µM): 0.393
- relative viability (NCI-H1651; first compound 0.005 µM): 0.406
- relative viability (NCI-H1651; first compound 0.01581 µM): 0.457
- relative viability (NCI-H1651; first compound 0.05 µM): 0.397
- relative viability (NCI-H1651; first compound 0.1581 µM): 0.179
- relative viability (NCI-H1651; first compound 0.5 µM): 0.205
- relative viability (NCI-H1793; first compound 0.005 µM): 0.364
- relative viability (NCI-H1793; first compound 0.01581 µM): 0.37
- relative viability (NCI-H1793; first compound 0.05 µM): 0.387
- relative viability (NCI-H1793; first compound 0.1581 µM): 0.257
- relative viability (NCI-H1793; first compound 0.5 µM): 0.191
- relative viability (NCI-H1944; first compound 0.005 µM): 0.177
- relative viability (NCI-H1944; first compound 0.01581 µM): 0.123
- relative viability (NCI-H1944; first compound 0.05 µM): 0.117
- relative viability (NCI-H1944; first compound 0.1581 µM): 0.0903
- relative viability (NCI-H1944; first compound 0.5 µM): 0.0942
- relative viability (NCI-H2023; first compound 0.005 µM): 0.315
- relative viability (NCI-H2023; first compound 0.01581 µM): 0.219
- relative viability (NCI-H2023; first compound 0.05 µM): 0.145
- relative viability (NCI-H2023; first compound 0.1581 µM): 0.107
- relative viability (NCI-H2023; first compound 0.5 µM): 0.0893
- relative viability (NCI-H2085; first compound 0.005 µM): 0.202
- relative viability (NCI-H2085; first compound 0.01581 µM): 0.263
- relative viability (NCI-H2085; first compound 0.05 µM): 0.2
- relative viability (NCI-H2085; first compound 0.1581 µM): 0.188
- relative viability (NCI-H2085; first compound 0.5 µM): 0.2
- relative viability (NCI-H2087; first compound 0.005 µM): 0.747
- relative viability (NCI-H2087; first compound 0.01581 µM): 0.712
- relative viability (NCI-H2087; first compound 0.05 µM): 0.82
- relative viability (NCI-H2087; first compound 0.1581 µM): 0.265
- relative viability (NCI-H2087; first compound 0.5 µM): 0.233
- relative viability (NCI-H2405; first compound 0.005 µM): 0.206
- relative viability (NCI-H2405; first compound 0.01581 µM): 0.17
- relative viability (NCI-H2405; first compound 0.05 µM): 0.167
- relative viability (NCI-H2405; first compound 0.1581 µM): 0.144
- relative viability (NCI-H2405; first compound 0.5 µM): 0.146
- relative viability (NCI-H520; first compound 0.005 µM): 0.218
- relative viability (NCI-H520; first compound 0.01581 µM): 0.199
- relative viability (NCI-H520; first compound 0.05 µM): 0.263
- relative viability (NCI-H520; first compound 0.1581 µM): 0.187
- relative viability (NCI-H520; first compound 0.5 µM): 0.142
- relative viability (NCI-H650; first compound 0.005 µM): 0.474
- relative viability (NCI-H650; first compound 0.01581 µM): 0.399
- relative viability (NCI-H650; first compound 0.05 µM): 0.257
- relative viability (NCI-H650; first compound 0.1581 µM): 0.213
- relative viability (NCI-H650; first compound 0.5 µM): 0.165
- relative viability (NCI-H838; first compound 0.005 µM): 0.281
- relative viability (NCI-H838; first compound 0.01581 µM): 0.274
- relative viability (NCI-H838; first compound 0.05 µM): 0.229
- relative viability (NCI-H838; first compound 0.1581 µM): 0.214
- relative viability (NCI-H838; first compound 0.5 µM): 0.164
- relative viability (SK-MES-1; first compound 0.005 µM): 0.213
- relative viability (SK-MES-1; first compound 0.01581 µM): 0.174
- relative viability (SK-MES-1; first compound 0.05 µM): 0.127
- relative viability (SK-MES-1; first compound 0.1581 µM): 0.117
- relative viability (SK-MES-1; first compound 0.5 µM): 0.113
